The values below come from ChEMBL document CHEMBL1151928, “Identification of Hsp70 modulators through modeling of the substrate binding domain” (Bioorg Med Chem Lett, 2009).

Test [1] deals with Hsp70 Ssa1p. Briefly: Activation of yeast Hsp70 Ssa1p ATP hydrolysis activity at 300 uM. To be noted: Saccharomyces cerevisiae.
The subject of test [2] is Hsp70 Ssa1p. Put plainly: Activation of yeast Hsp70 Ssa1p ATP hydrolysis activity at 300 uM in presence of ALLLSAPRR peptide. To be noted: Saccharomyces cerevisiae.

Active and inactive are the calls of the source. The rule behind the calls is not given here.

As for `CCOCCCN(C(C)=O)[C@@H](CC(C)C)C(=O)N[C@@H](CC(C)C)C(=O)NCCN1CCOCC1`, the result in the test with Hsp70 Ssa1p [1] and in the test with Hsp70 Ssa1p [2] was Active.
